From patent US6544990B2, “Substituted quinolinecarboxamides as antiviral agents” (Pharmacia & Upjohn Company, priority 2001, dated 2003)

Tests used:
HCMV polymerase = biological target: T1, HCMV polymerase (Human cytomegalovirus, UniProt P08546); experiment: HCMV polymerase scintillation proximity assay (SPA); type: biochemical; details: CMV polymerase
T1 construct: made in house; host or cells: recombinant baculovirus-infected SF-9 cells
Procedure: The HCMV polymerase assay is performed using a scintillation proximity assay (SPA) as described in several references, such as N. D. Cook, et al., Pharmaceutical Manufacturing International, pages 49-53 (1992); K. Takeuchi, Laboratory Practice, September issue (1992); U.S. Pat. No. 4,568,649 (1986); which are incorporated by reference herein. Reactions are performed in 96-well plates. The assay is conducted in 100 μl volume with 5.4 mM HEPES (pH 7.5), 11.7 mM KCl, 4.5 mM MgCl2, 0.36 mg/ml BSA, and 90 nM 3H-dTTP. Assays are run with and without CHAPS, (3-[(3-Cholamidopropyl)-dimethylammonio]-1-propane-sulfonate) at a final concentration of 2 mM. HCMV polymerase is diluted in enzyme dilution buffer containing 50% glycerol, 250 mM NaCl, 10 mM HEPES (pH 7.5), 100 μg/ml BSA, and 0.01% sodium azide. The HCMV polymerase, which is expressed in recombinant baculovirus-infected SF-9 cells and purified according to literature procedures, is added at 10% (or 10 μl ) of the final reaction volume, i.e., 100 μl. Compounds are diluted in 50% DMSO and 10 μl are added to each well. Control wells contain an equivalent concentration of DMSO. Unless noted otherwise, reactions are initiated via the addition of 6 nM biotinylated poly(dA)-oligo(dT) template/primer to reaction mixtures containing the enzyme, substrate, and compounds of interest. Plates are incubated in a 25 C or 37 C H20 bath and terminated via the addition of 40 μl/reaction of 0.5 M EDTA (pH 8) per well. Reactions are terminated within the time-frame during which substrate incorporation is linear and varied depending upon the enzyme and conditions used, i.e., 30 min. for HCMV polymerase. Ten μl of streptavidin-SPA beads (20 mg/mil in PBS/10% glycerol) are added following termination of the reaction. Plates are incubated 10 min. at 37 C, then equilibrated to room temperature, and counted on a Packard Topcount. Linear regressions are performed and IC50's are calculated using computer software.
A modified version of the above HCMV polymerase assay is performed as described above, but with the following changes: Compounds are diluted in 100% DMSO until final dilution into assay buffer. In the previous assay, compounds are diluted in 50% DMSO. 4.5 mM dithiotherotol (DTT) is added to the polymerase buffer.

VZV polymerase = VZV polymerase (Varicella-zoster virus, UniProt P09252); experiment: Polymerase scintillation proximity assay (SPA), VZV; type: biochemical
Chain of VZV polymerase (P09252 whole entry): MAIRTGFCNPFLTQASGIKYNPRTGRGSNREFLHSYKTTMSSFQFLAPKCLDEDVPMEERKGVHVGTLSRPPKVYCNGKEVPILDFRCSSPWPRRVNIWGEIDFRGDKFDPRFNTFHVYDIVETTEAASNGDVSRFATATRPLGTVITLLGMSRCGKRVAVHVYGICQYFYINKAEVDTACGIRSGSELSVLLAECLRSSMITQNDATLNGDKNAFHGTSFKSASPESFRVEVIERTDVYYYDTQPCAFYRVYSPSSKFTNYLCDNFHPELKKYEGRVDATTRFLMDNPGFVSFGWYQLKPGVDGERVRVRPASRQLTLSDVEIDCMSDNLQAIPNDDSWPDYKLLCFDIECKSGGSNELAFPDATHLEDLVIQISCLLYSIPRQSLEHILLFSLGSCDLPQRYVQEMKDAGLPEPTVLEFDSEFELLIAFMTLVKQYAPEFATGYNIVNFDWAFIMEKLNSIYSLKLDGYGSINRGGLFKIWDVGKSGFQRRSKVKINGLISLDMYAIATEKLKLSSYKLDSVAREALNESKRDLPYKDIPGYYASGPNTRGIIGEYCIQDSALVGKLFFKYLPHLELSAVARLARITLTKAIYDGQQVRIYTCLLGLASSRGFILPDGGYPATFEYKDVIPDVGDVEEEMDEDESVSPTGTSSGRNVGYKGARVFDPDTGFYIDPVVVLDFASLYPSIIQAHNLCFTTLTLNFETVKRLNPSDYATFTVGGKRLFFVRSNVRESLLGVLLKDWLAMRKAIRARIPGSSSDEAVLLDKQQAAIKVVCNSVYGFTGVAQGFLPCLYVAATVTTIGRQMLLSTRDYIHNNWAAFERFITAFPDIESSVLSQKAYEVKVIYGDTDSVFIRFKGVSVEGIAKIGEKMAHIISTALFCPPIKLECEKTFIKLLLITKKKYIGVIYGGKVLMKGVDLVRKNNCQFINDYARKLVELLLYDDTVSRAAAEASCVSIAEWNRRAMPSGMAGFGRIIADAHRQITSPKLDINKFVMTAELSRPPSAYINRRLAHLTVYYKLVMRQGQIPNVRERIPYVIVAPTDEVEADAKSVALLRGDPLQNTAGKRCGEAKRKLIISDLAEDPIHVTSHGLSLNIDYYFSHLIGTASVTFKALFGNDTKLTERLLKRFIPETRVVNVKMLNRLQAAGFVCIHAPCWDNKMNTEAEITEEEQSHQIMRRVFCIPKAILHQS

HSV polymerase = HSV polymerase (Human herpesvirus 1, UniProt P04293); experiment: Polymerase scintillation proximity assay (SPA), HSV; type: biochemical
Chain of HSV polymerase (P04293 whole entry): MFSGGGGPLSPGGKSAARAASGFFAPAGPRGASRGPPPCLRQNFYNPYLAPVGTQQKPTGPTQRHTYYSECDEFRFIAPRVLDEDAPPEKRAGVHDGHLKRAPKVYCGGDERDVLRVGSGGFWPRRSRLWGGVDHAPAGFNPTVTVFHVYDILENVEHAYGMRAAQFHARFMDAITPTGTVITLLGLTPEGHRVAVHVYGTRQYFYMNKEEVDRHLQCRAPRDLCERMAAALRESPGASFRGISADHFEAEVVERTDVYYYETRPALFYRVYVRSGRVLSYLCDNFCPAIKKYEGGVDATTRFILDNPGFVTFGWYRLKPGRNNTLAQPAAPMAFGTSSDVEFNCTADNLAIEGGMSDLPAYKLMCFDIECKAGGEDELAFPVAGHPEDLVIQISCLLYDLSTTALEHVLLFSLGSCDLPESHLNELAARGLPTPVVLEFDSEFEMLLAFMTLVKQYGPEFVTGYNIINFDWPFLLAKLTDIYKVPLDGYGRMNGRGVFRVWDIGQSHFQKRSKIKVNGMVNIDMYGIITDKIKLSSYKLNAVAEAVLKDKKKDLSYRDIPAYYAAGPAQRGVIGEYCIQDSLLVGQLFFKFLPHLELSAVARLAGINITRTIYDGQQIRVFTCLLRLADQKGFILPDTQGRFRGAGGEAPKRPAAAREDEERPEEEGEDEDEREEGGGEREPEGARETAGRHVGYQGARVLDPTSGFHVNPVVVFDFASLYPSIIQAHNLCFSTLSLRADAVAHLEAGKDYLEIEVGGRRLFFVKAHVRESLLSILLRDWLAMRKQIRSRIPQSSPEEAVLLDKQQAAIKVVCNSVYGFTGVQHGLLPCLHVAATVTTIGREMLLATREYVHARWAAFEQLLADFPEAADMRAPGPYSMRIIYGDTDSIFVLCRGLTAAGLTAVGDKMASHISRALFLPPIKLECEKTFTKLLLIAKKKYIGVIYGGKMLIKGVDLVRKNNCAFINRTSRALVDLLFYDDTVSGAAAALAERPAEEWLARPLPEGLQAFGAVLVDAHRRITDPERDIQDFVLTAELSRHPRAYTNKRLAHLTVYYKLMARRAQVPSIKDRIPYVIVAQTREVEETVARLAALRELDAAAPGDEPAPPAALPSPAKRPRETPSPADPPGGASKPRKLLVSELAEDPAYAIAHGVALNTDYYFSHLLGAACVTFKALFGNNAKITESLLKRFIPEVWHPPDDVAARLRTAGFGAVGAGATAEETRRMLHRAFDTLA

T1 sequence (P08546 whole entry): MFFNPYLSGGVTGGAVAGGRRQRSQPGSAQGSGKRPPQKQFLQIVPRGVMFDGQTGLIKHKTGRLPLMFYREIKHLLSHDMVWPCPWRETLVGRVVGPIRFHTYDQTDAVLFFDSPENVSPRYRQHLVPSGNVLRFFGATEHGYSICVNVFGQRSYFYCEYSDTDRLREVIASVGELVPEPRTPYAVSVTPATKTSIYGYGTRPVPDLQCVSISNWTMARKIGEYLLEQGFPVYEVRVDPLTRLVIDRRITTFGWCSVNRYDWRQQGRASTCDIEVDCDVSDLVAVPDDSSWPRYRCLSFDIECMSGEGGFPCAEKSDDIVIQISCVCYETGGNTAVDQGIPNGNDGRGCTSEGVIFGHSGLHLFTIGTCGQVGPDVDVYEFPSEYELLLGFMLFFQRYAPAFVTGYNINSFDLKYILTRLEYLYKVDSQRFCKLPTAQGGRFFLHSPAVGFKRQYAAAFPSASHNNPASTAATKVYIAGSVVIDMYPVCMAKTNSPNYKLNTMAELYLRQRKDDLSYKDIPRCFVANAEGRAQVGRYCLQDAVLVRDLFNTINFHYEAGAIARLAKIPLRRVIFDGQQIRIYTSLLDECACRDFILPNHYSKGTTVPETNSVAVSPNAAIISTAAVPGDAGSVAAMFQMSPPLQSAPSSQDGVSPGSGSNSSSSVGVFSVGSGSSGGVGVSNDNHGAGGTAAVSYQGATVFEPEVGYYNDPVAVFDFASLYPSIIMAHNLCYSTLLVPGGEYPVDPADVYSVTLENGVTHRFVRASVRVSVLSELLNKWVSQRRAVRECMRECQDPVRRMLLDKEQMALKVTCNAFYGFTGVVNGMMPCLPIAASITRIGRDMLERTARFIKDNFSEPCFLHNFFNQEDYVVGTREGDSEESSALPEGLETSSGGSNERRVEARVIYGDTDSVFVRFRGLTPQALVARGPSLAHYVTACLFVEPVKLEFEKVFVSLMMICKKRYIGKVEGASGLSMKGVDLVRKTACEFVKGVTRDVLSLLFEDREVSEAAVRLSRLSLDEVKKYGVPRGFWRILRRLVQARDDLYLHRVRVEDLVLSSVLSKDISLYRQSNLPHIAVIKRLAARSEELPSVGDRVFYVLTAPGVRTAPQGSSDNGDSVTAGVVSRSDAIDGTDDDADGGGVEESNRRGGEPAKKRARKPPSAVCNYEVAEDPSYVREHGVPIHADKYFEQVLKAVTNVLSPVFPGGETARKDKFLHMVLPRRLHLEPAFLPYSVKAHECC

| Structure (SMILES) | melting point | IC50 (HCMV polymerase) | IC50 (VZV polymerase) | IC50 (HSV polymerase) |
| --- | --- | --- | --- | --- |
| Cn1cc(C(=O)NCc2ccc(Cl)cc2)c(=O)c2cc(CN3CCOCC3)cc(C#CCCCO)c21 [Example 10, N-(4-chlorobenzyl)-8-(5-hydroxy-1-pentynyl)-1-methyl-6-(4-morpholinylmethyl)-4-oxo-1,4-dihydro-3-quinolinecarboxamide] | 179 to 182 °C | 0.48 µM | 0.16 µM | 0.41 µM |
| Cn1cc(C(=O)NCc2ccc(Cl)cc2)c(=O)c2cc(CN3CCOCC3)cc(C#CCO)c21 [Example 4, N-(4-chlorobenzyl)-8-(3-hydroxy-1-propynyl)-1-methyl-6-(4-morpholinylmethyl)-4-oxo-1,4-dihydro-3-quinolinecarboxamide] | 180 to 183 °C | 0.83 µM | 0.36 µM | 0.83 µM |
| Cn1cc(C(=O)NCc2ccc(Cl)cc2)c(=O)c2cc(CN3CCOCC3)cc(C#Cc3cccnc3)c21 [Example 16, N-(4-chlorobenzyl)-1-methyl-6-(morpholin-4-ylmethyl)-4-oxo-8-(pyridin-3-ylethynyl)-1,4-dihydroquinoline-3-carboxamide] | 195 to 197 °C | 0.47 µM | 0.15 µM | 0.28 µM |
| Cn1cc(C(=O)NCc2ccc(Cl)cc2)c(=O)c2cc(CN3CCOCC3)cc(C#CCn3cnc(Cl)c3Cl)c21 [Example 13, N-(4-chlorobenzyl)-8-[3-(4,5-dichloro-1H-imidazol-1-yl)prop-1-ynyl]-1-methyl-6-(morpholin-4-ylmethyl)-4-oxo-1,4-dihydroquinoline-3-carboxamide] | 178 to 181 °C | 0.5 µM | 0.25 µM | 0.49 µM |
| C[C@@H](O)C#Cc1cc(CN2CCOCC2)cc2c(=O)c(C(=O)NCc3ccc(Cl)cc3)cn(C)c12 [Example 8, N-(4-chlorobenzyl)-8-[(3R)-3-hydroxy-1-butynyl]-1-methyl-6-(4-morpholinylmethyl)-4-oxo-1,4-dihydro-3-quinolinecarboxamide] | 147 to 150 °C | 0.87 µM | 0.48 µM | 1 µM |
| Cn1cc(C(=O)NCc2ccc(Cl)cc2)c(=O)c2cc(CN3CCOCC3)cc(C#CCN3CCS(=O)(=O)CC3)c21 [Example 11, N-(4-chlorobenzyl)-8-[3-(1,1-dioxido-4-thiomorpholinyl)-1-propynyl]-1-methyl-6-(4-morpholinylmethyl)-4-oxo-1,4-dihydro-3-quinolinecarboxamide] | 220 to 222 °C | 0.36 µM | 0.18 µM | 0.28 µM |
| Cn1cc(C(=O)NCc2ccc(Cl)cc2)c(=O)c2cc(CN3CCOCC3)cc(C#Cc3ccncc3)c21 [Example 17, N-(4-chlorobenzyl)-1-methyl-6-(morpholin-4-ylmethyl)-4-oxo-8-(pyridin-4-ylethynyl)-1,4-dihydroquinoline-3-carboxamide] | 200 to 202 °C | 0.42 µM | 0.11 µM | 0.21 µM |

The next molecules have a lower IC50 (HCMV polymerase) than those just listed; values first:

| melting point | IC50 (HCMV polymerase) | IC50 (VZV polymerase) | IC50 (HSV polymerase) | Structure (SMILES) |
| --- | --- | --- | --- | --- |
| 234 to 236 °C | 0.32 µM | 0.14 µM | 0.26 µM | Cn1cc(C(=O)NCc2ccc(Cl)cc2)c(=O)c2cc(CN3CCOCC3)cc(C#Cc3ccccn3)c21 [Example 15, N-(4-chlorobenzyl)-1-methyl-6-(morpholin-4-ylmethyl)-4-oxo-8-(pyridin-2-ylethynyl)-1,4-dihydroquinoline-3-carboxamide] |
| 166 to 168 °C | 0.32 µM | 0.18 µM | 0.25 µM | Cn1cc(C(=O)NCc2ccc(Cl)cc2)c(=O)c2cc(CC3CCOCC3)cc(C#CCO)c21 [Example 1, N-(4-chlorobenzyl)-8-(3-hydroxy-1-propynyl)-1-methyl-4-oxo-6-(tetrahydro-2H-pyran-4-ylmethyl)-1,4-dihydro-3-quinolinecarboxamide] |
| 178 to 180 °C | 0.33 µM | 0.1 µM | 0.22 µM | Cn1cc(C(=O)NCc2ccc(Cl)cc2)c(=O)c2cc(CN3CCOCC3)cc(C#CCn3ccnc3)c21 [Example 23, N-(4-chlorobenzyl)-8-[3-(1 H-imidazol-1-yl)prop-1-ynyl]-1-methyl-6-(morpholin-4-ylmethyl)-4-oxo-1,4-dihydroquinoline-3-carboxamide] |
